In ChEMBL document CHEMBL1201862, “PubChem BioAssay data set” (2004):
Activity calls are given as the source filed them.

How the values were obtained:
[1] = viability loss in THP-1 monocytes – THP-1 cells, cytotoxicity control for Vif-APOBEC3G degradation inhibitor project, dose response (AID 1117359); format: functional; details: THP-1
Estrogen receptor = Estrogen receptor (Homo sapiens, UniProt P03372);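 note: potency for inhibiting coactivator peptide recruitment to the receptor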
[2] = growth inhibition of PfATP4-mutant resistant parasites – NITD609-resistant line, SYBR Green, dry powder, dose response (AID 1159571); format: functional, cell-based;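 note: parasites synchronized at ring stage by sorbitol before testing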
[3] = growth inhibition of yeast DHODH-expressing 3D7 parasites – SYBR Green, dry powder samples, dose response (AID 1159570); format: functional, cell-based;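 note: parasite growth measured after 72 hours of compound exposure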
[4] = P. falciparum Dd2 growth inhibitors, dose response, SYBR Green, cherry-picked samples (AID 1159567); format: functional, cell-based
[5] = toxicity to human HepG2 hepatoma cells – cell-based, plate reader, dry powder samples, cytotoxicity control, dose response (AID 1159569); format: functional;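 note: inhibitor potency with signal falling toward the positive control level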
[6] = Dd2 malaria parasite growth inhibition potency – SYBR Green, dry powder samples, dose response (AID 1159566); format: functional, cell-based;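 note: potency for growth inhibition with lower SYBR green DNA signal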
HEK293 = assay: EBV LMP1 TES2 canonical NF-kB signalling blockers – cell-based, HEK293, luciferase, cherry-pick, dose response (AID 588343); format: functional; details: Homo sapiens
Streptokinase A = biological target: T1, Streptokinase A (Streptococcus pyogenes serotype M1, UniProt P10520); assay: viability-normalized secreted streptokinase activity reduction – plasminogen activation absorbance, OD405, dose response (AID 1914); format: functional, Streptococcus pyogenes M1 GAS;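 note: secreted streptokinase activity via plasminogen activation per viability signal from cell pellet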
T1 sequence (P10520 whole entry): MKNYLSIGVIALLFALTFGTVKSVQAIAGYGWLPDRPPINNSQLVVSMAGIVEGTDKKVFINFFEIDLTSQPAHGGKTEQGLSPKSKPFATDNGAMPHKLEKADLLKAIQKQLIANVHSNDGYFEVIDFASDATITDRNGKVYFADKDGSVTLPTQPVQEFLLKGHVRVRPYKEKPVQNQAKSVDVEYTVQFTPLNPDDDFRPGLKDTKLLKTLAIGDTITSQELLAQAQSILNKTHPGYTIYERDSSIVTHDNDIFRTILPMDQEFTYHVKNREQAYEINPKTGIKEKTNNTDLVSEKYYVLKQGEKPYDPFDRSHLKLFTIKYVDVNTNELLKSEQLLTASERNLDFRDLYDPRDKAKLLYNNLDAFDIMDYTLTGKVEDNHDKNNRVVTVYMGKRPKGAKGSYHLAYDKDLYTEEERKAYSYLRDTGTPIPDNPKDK

INS1 = assay: INS-1E survival protection against cytokine death – cell-based, luminescence, retest, dose response (AID 449756); format: functional; details: Rattus norvegicus;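 note: cell death triggered by IL-1 beta plus TNF-alpha plus IFN-gamma mixture; protective hits raise ATP signal compared with cytokine alone wells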
[7] = tested on: Streptococcus sp. 'group A'; assay: Streptococcus pyogenes SK(-)GAS viability under kanamycin – luminescence, BacTiterGlo, confirmation, counter-screen for streptokinase expression inhibitor project, dose response (AID 1900); format: functional, organism-based
Streptococcus = assay: GAS UMAA2166 growth inhibition – luminescence, BacTiterGlo, counter-screen for streptokinase expression inhibitor project, dose response (AID 1915); format: functional, organism-based;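 note: potency for reduction of bacterial viability or growth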
fMet-Leu-Phe receptor = fMet-Leu-Phe receptor (Homo sapiens, UniProt P21462); assay: formyl peptide receptor binders – dose response (AID 519); format: functional
NADPH oxidase 1 = NADPH oxidase 1 (Homo sapiens, UniProt Q9Y5S8); assay: Luminescence-based cell-based dose response assay to identify inhibitors of NADPH oxidase 1 (NOX1).; format: functional
[8] = biological target: Sphingosine 1-phosphate receptor 2 (Homo sapiens, UniProt O95136); assay: Dose Response Cell Based Assay for Agonists of the S1P2 Receptor. [Related pubchem assays: 729, 736, 843 ]; format: functional
Sphingosine 1-phosphate receptor 2, sequence (O95136 whole entry): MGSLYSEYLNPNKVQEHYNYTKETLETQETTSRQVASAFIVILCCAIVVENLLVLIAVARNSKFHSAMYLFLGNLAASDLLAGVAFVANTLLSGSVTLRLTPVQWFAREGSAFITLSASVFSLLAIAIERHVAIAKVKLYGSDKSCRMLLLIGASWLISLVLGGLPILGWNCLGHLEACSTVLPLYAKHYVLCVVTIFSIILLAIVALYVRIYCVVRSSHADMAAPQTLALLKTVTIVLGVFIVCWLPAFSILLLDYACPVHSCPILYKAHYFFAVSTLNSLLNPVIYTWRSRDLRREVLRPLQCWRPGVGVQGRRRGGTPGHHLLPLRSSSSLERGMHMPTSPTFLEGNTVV

NADPH oxidase 1, sequence (Q9Y5S8 whole entry): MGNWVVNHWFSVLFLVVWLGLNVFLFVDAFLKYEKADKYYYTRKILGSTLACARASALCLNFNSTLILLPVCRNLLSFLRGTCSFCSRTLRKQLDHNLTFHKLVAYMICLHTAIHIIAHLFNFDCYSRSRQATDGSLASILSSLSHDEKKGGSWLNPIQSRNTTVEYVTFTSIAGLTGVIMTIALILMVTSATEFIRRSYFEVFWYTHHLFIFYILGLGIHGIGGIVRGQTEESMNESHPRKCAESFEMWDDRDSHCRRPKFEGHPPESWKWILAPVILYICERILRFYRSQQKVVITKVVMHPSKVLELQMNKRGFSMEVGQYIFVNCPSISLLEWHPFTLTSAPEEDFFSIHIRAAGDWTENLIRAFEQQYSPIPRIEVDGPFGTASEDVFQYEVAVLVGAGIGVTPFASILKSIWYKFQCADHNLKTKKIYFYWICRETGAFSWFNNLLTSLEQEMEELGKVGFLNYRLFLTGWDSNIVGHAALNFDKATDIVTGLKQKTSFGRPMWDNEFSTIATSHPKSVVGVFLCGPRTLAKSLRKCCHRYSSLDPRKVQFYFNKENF
fMet-Leu-Phe receptor, sequence (P21462 whole entry): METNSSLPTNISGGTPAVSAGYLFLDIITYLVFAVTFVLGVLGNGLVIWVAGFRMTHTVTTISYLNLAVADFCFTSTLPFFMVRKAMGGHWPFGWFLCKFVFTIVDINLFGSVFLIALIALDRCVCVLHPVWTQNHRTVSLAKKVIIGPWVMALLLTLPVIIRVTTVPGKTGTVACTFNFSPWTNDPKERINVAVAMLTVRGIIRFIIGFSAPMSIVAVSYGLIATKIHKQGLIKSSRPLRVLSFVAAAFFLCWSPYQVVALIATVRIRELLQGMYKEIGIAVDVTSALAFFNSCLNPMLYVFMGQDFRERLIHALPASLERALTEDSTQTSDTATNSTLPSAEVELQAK
Estrogen receptor, sequence (P03372 whole entry): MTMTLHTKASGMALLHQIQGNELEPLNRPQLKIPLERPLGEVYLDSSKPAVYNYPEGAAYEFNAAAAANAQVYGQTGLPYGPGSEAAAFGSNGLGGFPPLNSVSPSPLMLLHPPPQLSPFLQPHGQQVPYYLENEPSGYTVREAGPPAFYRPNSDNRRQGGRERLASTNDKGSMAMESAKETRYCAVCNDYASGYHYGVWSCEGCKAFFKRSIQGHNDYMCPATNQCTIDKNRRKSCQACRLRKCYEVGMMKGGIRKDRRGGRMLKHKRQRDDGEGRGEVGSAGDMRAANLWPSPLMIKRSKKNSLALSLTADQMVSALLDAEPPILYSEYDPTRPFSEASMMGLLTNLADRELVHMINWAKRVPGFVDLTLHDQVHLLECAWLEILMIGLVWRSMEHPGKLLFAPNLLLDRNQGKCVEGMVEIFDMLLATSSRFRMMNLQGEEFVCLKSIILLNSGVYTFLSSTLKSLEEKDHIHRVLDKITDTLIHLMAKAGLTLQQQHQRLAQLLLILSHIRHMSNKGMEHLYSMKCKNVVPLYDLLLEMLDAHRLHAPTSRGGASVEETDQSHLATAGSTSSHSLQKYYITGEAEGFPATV

With `CCN(c1ccccc1)S(=O)(=O)c1ccc(C(=O)NNC(=O)c2ccccc2F)cc1` the CC50 [1] was 23.5 µM (active).
For `CSc1ccc(S(=O)(=O)Nc2c(C)cccc2C)cc1`, the IC50 (Estrogen receptor) was > 50 µM (not active).
With `CC(C)(C)[S@+]([O-])N1Cc2cc(C(=O)NCc3ccccc3F)nc(-c3cccc(-c4ccncc4)c3)c2[C@@H]1CCO` the AC50 [2] was 1.93 µM (active), the AC50 [3] was 1.36 µM (active) and the AC50 [4] was 1.68 µM (active). For the same molecule, the AC50 [5] was 29.1 µM (active) and the AC50 [6] was 1.42 µM (active).
In the case of `Oc1c2c(nc3c(-c4ccc(Cl)cc4)cnn13)CCCC2`, the AC50 (HEK293) is reported as 2.89 µM (active), the EC50 (Streptokinase A) is reported as > 150 µM (not active) and the AC50 (INS1) is reported as 2.37 µM (active). For the same molecule, the EC50 [7] was 3.64 µM (active), the EC50 (Streptococcus) was 9.5 µM (active) and the Ki (fMet-Leu-Phe receptor) was > 66.7 µM (inactive).
In the case of `CN(C)c1ccc(NC(=O)Nc2cccc3ccccc23)cc1`, the IC50 (NADPH oxidase 1) is reported as 0.464 µM (active).
For `CCN(CC)c1ccc(NC(=O)Nc2ccccc2C(F)(F)F)cc1`, the IC50 (NADPH oxidase 1) was 0.354 µM (active) and the EC50 [8] was > 50 µM (not active).
In the case of `O=C(NC1CCCC1)C1CC1c1ccccc1` (configuration not stated), the Ki (fMet-Leu-Phe receptor) is reported as > 66.7 µM (inactive).
